Assay results published in patent publication US11078202B2, “β-lactamase inhibitor and use thereof” (priority 2018, dated 2021).
Structures can show the parent of a compound that is named as a salt.

How the values were obtained:
Format in all cases: cell-based
[1] = test system: Klebsiella pneumoniae XNWB 0005; assay: MIC assay of test compounds combined with ceftazidime (8 μg/mL); settings: ceftazidime 8 μg/mL fixed
Method in brief: (§1)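 Antibiotic potentiation test: compound serially diluted, partner β-lactam at constant concentration, CAMHB medium, saline-standardised inoculum (OD600 0.1-0.15) diluted 300-fold. Incubated 16-20 h at 35±2 °C.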

[2] = test system: Klebsiella pneumoniae XNWB 0001; assay: as above; settings: ceftazidime 8 μg/mL fixed
Method in brief: as §1

[3] = test system: Klebsiella pneumoniae XNWB 0003; assay: as above; settings: ceftazidime 8 μg/mL fixed
Method in brief: as §1

[4] = test system: Klebsiella pneumoniae XNWB 0002; assay: as above; settings: ceftazidime 8 μg/mL fixed
Method in brief: as §1

[5] = test system: Acinetobacter baumannii XNWB 0007; assay: as above; settings: ceftazidime 8 μg/mL fixed
Method in brief: as §1

[6] = test system: Pseudomonas aeruginosa XNWB 0008; assay: as above; settings: ceftazidime 8 μg/mL fixed
Method in brief: as §1

[7] = test system: Klebsiella pneumoniae XNWB 0006; assay: as above; settings: ceftazidime 8 μg/mL fixed
Method in brief: as §1

[8] = test system: Klebsiella pneumoniae XNWB 0004; assay: as above; settings: ceftazidime 8 μg/mL fixed
Method in brief: as §1

[9] = test system: Klebsiella pneumoniae XNWB 0005; assay: MIC assay of test compounds combined with imipenem (4 μg/mL); settings: imipenem 4 μg/mL fixed
Method in brief: as §1

[10] = test system: Klebsiella pneumoniae XNWB 0001; assay: as above; settings: imipenem 4 μg/mL fixed
Method in brief: as §1

[11] = test system: Klebsiella pneumoniae XNWB 0003; assay: as above; settings: imipenem 4 μg/mL fixed
Method in brief: as §1

[12] = test system: Klebsiella pneumoniae XNWB 0002; assay: as above; settings: imipenem 4 μg/mL fixed
Method in brief: as §1

[13] = test system: Acinetobacter baumannii XNWB 0007; assay: as above; settings: imipenem 4 μg/mL fixed
Method in brief: as §1

[14] = test system: Pseudomonas aeruginosa XNWB 0008; assay: as above; settings: imipenem 4 μg/mL fixed
Method in brief: as §1

[15] = test system: Klebsiella pneumoniae XNWB 0006; assay: as above; settings: imipenem 4 μg/mL fixed
Method in brief: as §1

[16] = test system: Klebsiella pneumoniae XNWB 0004; assay: as above; settings: imipenem 4 μg/mL fixed
Method in brief: as §1

[17] = test system: Enterobacter aerogenes XNWB 0011; assay: MIC assay of test compounds combined with ampicillin (8 μg/mL); settings: ampicillin 8 μg/mL fixed
Procedure: (§2) The bacterial strains used for the minimum inhibitory concentration (MIC) test were frozen in a −80° C. ULT freezer and thawed 2 days before use. A small amount of frozen bacterial strains were scraped using a sterile inoculating loop, streaked onto a TSA solid culture dish for inoculation, and then cultured for 20-24 h at 35±2° C. in a normal atmospheric environment.
(§3) 5-10 colonies with similar morphology were picked from the culture dish using a sterile inoculating loop and then re-streaked onto a suitable solid culture dish. Then the dish was placed into a normal incubator for culture for 20-24 h at 35±2° C.
(§4) 5-10 single bacterial colonies were picked from the solid culture dish, resuspended in 500 μL of 0.9% NaCl, and adjusted to an OD600 of 0.1-0.15 with a spectrophotometer.
(§5) The bacteria were then diluted 300-fold with 1.1×CAMHB.
(§6) Test compounds of columns A-H: having a highest final test concentration of 64 μg/mL or 32 μg/mL, 2-fold diluted.
(§7) Dilution of test compounds: All test compounds were dissolved and diluted in dimethylsulfoxide (DMSO). 170 μL of 3.2 mg/mL (50*64 μg/mL) compound was transferred to wells (A1-H1) of column 1 of a dilution master plate and then 85 μL of DMSO was transferred to wells of other columns. Each compound was diluted 2-fold in sequence (i.e., 85 μL of compound was pipetted from column 1 into column 2 and mixed uniformly, 85 μL of compound was pipetted from column 2 into column 3 and mixed uniformly, then 85 μL of compound was pipetted from column 3 into column 4 and mixed uniformly, and so on until the dilution was done in column 11).
(§8) Preparation of an additive of ampicillin: Ampicillin was dissolved in ddH2O. 30 μL of 100 μg/mL (12.5×8 μg/mL) ampicillin was transferred to columns 1-11 of an additive plate, followed by the addition of 30 μL of ddH2O to column 12.
(§9) 2 μL of each compound in the dilution master plate of the test compounds was transferred to the corresponding well of the assay plates. In the mean time, 2 μL of 100% DMSO was transferred to the compound-free wells (GC and SC wells). (1) 8 μL of imipenem in the additive plate of imipenem was transferred to the corresponding wells of the assay plates; (2) 8 μL of ceftazidime in the additive plate of ceftazidime was transferred to the corresponding wells of the assay plates; (3) 8 μL of ampicillin in the additive plate of ampicillin was transferred to the corresponding wells of the assay plates.
(§10) 90 μL of corresponding bacterial inocula were added to wells (except for SC wells) of the assay plates.
(§11) After addition, the 6 assay plates were covered by sterile covers. The mixtures in the assay plates were centrifuged by a centrifuge at 1000 rpm for 30 s, and mixed uniformly by oscillating with a microplate oscillator at 800 rpm for 1 min, and then cultured in a common incubator for 16-20 h at 35±2° C.
(§12) The minimum inhibitory concentration of each compound was recorded by reference to guidelines from the Clinical and Laboratory Standards Institute.
(§13) The minimum inhibitory concentrations of the compounds of the present invention and antibiotics (imipenem, ceftazidime, and ampicillin) against 11 strains of bacteria were tested in this study by reference to the medium microdilution method as indicated by the Clinical and Laboratory Standards Institute. The effect of the test compounds in combination with imipenem, ceftazidime, and ampicillin was also tested. Compounds were diluted two-fold in 96-well plates from the highest detection concentration of 64 μg/mL. The test compounds were tested in combination with a fixed concentration of imipenem (4 μg/mL), ceftazidime (8 μg/mL), and ampicillin (8 μg/mL). The bacterial inocula in the assay plates were resuscitated from TSA and diluted in CAMHB, while growth controls (GC wells) and sterile controls (SC wells) were set up in the assay plates. […]

[18] = test system: Escherichia coli XNWB 0010; assay: as above; settings: ampicillin 8 μg/mL fixed
Procedure: as §2, §3, §4, §5, §6, §7, §8, §9, §10, §11, §12, §13

[19] = test system: Escherichia coli XNWB 0009; assay: as above; settings: ampicillin 8 μg/mL fixed
Procedure: as §2, §3, §4, §5, §6, §7, §8, §9, §10, §11, §12, §13

SMILES: N=C(N)NCC1(c2nnc([C@@H]3CC4(CC4)[C@@H]4CN3C(=O)N4OS(=O)(=O)O)o2)CC1 [Example 13, (1R,4S)-4-(5-(1-(guanidinomethyl)cyclopropyl)-1,3,4-oxadiazol-2-yl)-6-oxo-5,7-diazaspiro[bicyclo[3.2.1]octane-2,1′-cyclopropan]-7-yl sulfate]
- The minimum concentration of test compounds combined with ceftazidime (8 μg/mL) for bacteriostasis [1]: A (A: <8 μg/mL)
- The minimum concentration of test compounds combined with ceftazidime (8 μg/mL) for bacteriostasis [2]: A (A: <8 μg/mL)
- The minimum concentration of test compounds combined with ceftazidime (8 μg/mL) for bacteriostasis [3]: A (A: <8 μg/mL)
- The minimum concentration of test compounds combined with ceftazidime (8 μg/mL) for bacteriostasis [4]: A (A: <8 μg/mL)
- The minimum concentration of test compounds combined with ceftazidime (8 μg/mL) for bacteriostasis [5]: B (B: 8-16 μg/mL)
- The minimum concentration of test compounds combined with ceftazidime (8 μg/mL) for bacteriostasis [6]: B (B: 8-16 μg/mL)
- The minimum concentration of test compounds combined with ceftazidime (8 μg/mL) for bacteriostasis [7]: A (A: <8 μg/mL)
- The minimum concentration of test compounds combined with ceftazidime (8 μg/mL) for bacteriostasis [8]: B (B: 8-16 μg/mL)
- The minimum concentration of test compounds combined with imipenem (4 μg/mL) for bacteriostasis [9]: A (A: <8 μg/mL)
- The minimum concentration of test compounds combined with imipenem (4 μg/mL) for bacteriostasis [10]: A (A: <8 μg/mL)
- The minimum concentration of test compounds combined with imipenem (4 μg/mL) for bacteriostasis [11]: A (A: <8 μg/mL)
- The minimum concentration of test compounds combined with imipenem (4 μg/mL) for bacteriostasis [12]: A (A: <8 μg/mL)
- The minimum concentration of test compounds combined with imipenem (4 μg/mL) for bacteriostasis [13]: C (C: 16-128 μg/mL)
- The minimum concentration of test compounds combined with imipenem (4 μg/mL) for bacteriostasis [14]: A (A: <8 μg/mL)
- The minimum concentration of test compounds combined with imipenem (4 μg/mL) for bacteriostasis [15]: A (A: <8 μg/mL)
- The minimum concentration of test compounds combined with imipenem (4 μg/mL) for bacteriostasis [16]: A (A: <8 μg/mL)
- The minimum concentration of test compounds combined with ampicillin (8 μg/mL) for bacteriostasis [17]: A (A: <8 μg/mL)
- The minimum concentration of test compounds combined with ampicillin (8 μg/mL) for bacteriostasis [18]: A (A: <8 μg/mL)
- The minimum concentration of test compounds combined with ampicillin (8 μg/mL) for bacteriostasis [19]: A (A: <8 μg/mL)

SMILES: NCCc1nnc([C@@H]2CC3(CC3)[C@@H]3CN2C(=O)N3OS(=O)(=O)O)o1 [Example 4, (1R,4S)-4-(5-(2-aminoethyl)-1,3,4-oxadiazol-2-yl)-6-oxo-5,7-diazaspiro[bicycle[3.2.1]octane-2,1′-cyclopropan]-7-yl sulfate]
- The minimum concentration of test compounds combined with ceftazidime (8 μg/mL) for bacteriostasis [1]: A (A: <8 μg/mL)
- The minimum concentration of test compounds combined with ceftazidime (8 μg/mL) for bacteriostasis [2]: A (A: <8 μg/mL)
- The minimum concentration of test compounds combined with ceftazidime (8 μg/mL) for bacteriostasis [3]: A (A: <8 μg/mL)
- The minimum concentration of test compounds combined with ceftazidime (8 μg/mL) for bacteriostasis [4]: A (A: <8 μg/mL)
- The minimum concentration of test compounds combined with ceftazidime (8 μg/mL) for bacteriostasis [5]: C (C: 16-128 μg/mL)
- The minimum concentration of test compounds combined with ceftazidime (8 μg/mL) for bacteriostasis [6]: C (C: 16-128 μg/mL)
- The minimum concentration of test compounds combined with ceftazidime (8 μg/mL) for bacteriostasis [7]: A (A: <8 μg/mL)
- The minimum concentration of test compounds combined with ceftazidime (8 μg/mL) for bacteriostasis [8]: A (A: <8 μg/mL)
- The minimum concentration of test compounds combined with imipenem (4 μg/mL) for bacteriostasis [9]: A (A: <8 μg/mL)
- The minimum concentration of test compounds combined with imipenem (4 μg/mL) for bacteriostasis [10]: A (A: <8 μg/mL)
- The minimum concentration of test compounds combined with imipenem (4 μg/mL) for bacteriostasis [11]: A (A: <8 μg/mL)
- The minimum concentration of test compounds combined with imipenem (4 μg/mL) for bacteriostasis [12]: A (A: <8 μg/mL)
- The minimum concentration of test compounds combined with imipenem (4 μg/mL) for bacteriostasis [13]: B (B: 8-16 μg/mL)
- The minimum concentration of test compounds combined with imipenem (4 μg/mL) for bacteriostasis [14]: A (A: <8 μg/mL)
- The minimum concentration of test compounds combined with imipenem (4 μg/mL) for bacteriostasis [15]: A (A: <8 μg/mL)
- The minimum concentration of test compounds combined with imipenem (4 μg/mL) for bacteriostasis [16]: A (A: <8 μg/mL)
- The minimum concentration of test compounds combined with ampicillin (8 μg/mL) for bacteriostasis [17]: B (B: 8-16 μg/mL)
- The minimum concentration of test compounds combined with ampicillin (8 μg/mL) for bacteriostasis [18]: A (A: <8 μg/mL)
- The minimum concentration of test compounds combined with ampicillin (8 μg/mL) for bacteriostasis [19]: A (A: <8 μg/mL)

SMILES: NCc1nnc([C@@H]2CC3(CC3)[C@@H]3CN2C(=O)N3OS(=O)(=O)O)o1 [Example 2, (1R,4S)-4-(5-(aminomethyl)-1,3,4-oxadiazol-2-yl)-6-oxo-5,7-diazaspiro[bicycle [3.2.1]octane-2,1′-cyclopropan]-7-yl sulfate]
- The minimum concentration of test compounds combined with ceftazidime (8 μg/mL) for bacteriostasis [1]: A (A: <8 μg/mL)
- The minimum concentration of test compounds combined with ceftazidime (8 μg/mL) for bacteriostasis [2]: A (A: <8 μg/mL)
- The minimum concentration of test compounds combined with ceftazidime (8 μg/mL) for bacteriostasis [3]: A (A: <8 μg/mL)
- The minimum concentration of test compounds combined with ceftazidime (8 μg/mL) for bacteriostasis [4]: A (A: <8 μg/mL)
- The minimum concentration of test compounds combined with ceftazidime (8 μg/mL) for bacteriostasis [5]: C (C: 16-128 μg/mL)
- The minimum concentration of test compounds combined with ceftazidime (8 μg/mL) for bacteriostasis [6]: C (C: 16-128 μg/mL)
- The minimum concentration of test compounds combined with ceftazidime (8 μg/mL) for bacteriostasis [7]: A (A: <8 μg/mL)
- The minimum concentration of test compounds combined with ceftazidime (8 μg/mL) for bacteriostasis [8]: B (B: 8-16 μg/mL)
- The minimum concentration of test compounds combined with imipenem (4 μg/mL) for bacteriostasis [9]: A (A: <8 μg/mL)
- The minimum concentration of test compounds combined with imipenem (4 μg/mL) for bacteriostasis [10]: A (A: <8 μg/mL)
- The minimum concentration of test compounds combined with imipenem (4 μg/mL) for bacteriostasis [11]: A (A: <8 μg/mL)
- The minimum concentration of test compounds combined with imipenem (4 μg/mL) for bacteriostasis [12]: A (A: <8 μg/mL)
- The minimum concentration of test compounds combined with imipenem (4 μg/mL) for bacteriostasis [13]: C (C: 16-128 μg/mL)
- The minimum concentration of test compounds combined with imipenem (4 μg/mL) for bacteriostasis [14]: C (C: 16-128 μg/mL)
- The minimum concentration of test compounds combined with imipenem (4 μg/mL) for bacteriostasis [15]: A (A: <8 μg/mL)
- The minimum concentration of test compounds combined with imipenem (4 μg/mL) for bacteriostasis [16]: A (A: <8 μg/mL)
- The minimum concentration of test compounds combined with ampicillin (8 μg/mL) for bacteriostasis [17]: A (A: <8 μg/mL)
- The minimum concentration of test compounds combined with ampicillin (8 μg/mL) for bacteriostasis [18]: A (A: <8 μg/mL)
- The minimum concentration of test compounds combined with ampicillin (8 μg/mL) for bacteriostasis [19]: A (A: <8 μg/mL)
